Measurements as given in patent US20260317344A1, “EGFR INHIBITORS FOR TREATING DISEASE” (BLOSSOMHILL THERAPEUTICS, INC., priority 2023, published 2026).

Assays:
Assay type in all cases: cell-based
NCI-H1975 cells = assay: 5-Day CellTiter Glo (CTG) cell proliferation assay, NCI-H1975; conditions: Homo sapiens; NCI-H1975 cells (L858R/T790M EGFR), 5-day CTG proliferation, 120 hours; read-out: H1975 IC50
Experimental: (§1) 5-Day CellTiter Glo (CTG) Cell Proliferation Assays (PC9, H1975, H827)
(§2) Cell proliferation assays were carried out in NSCLC cells with EGFR activation mutations. Both PC-9 cells and HCC827 cells (purchased from DSMZ) carry a Glu746-Ala750 deletion (d746-750) mutation in exon 19 of the EGFR gene and NCI-H1975 cells carry both L858R activation mutation and T790M gatekeeper mutation in the EGFR gene. One thousand PC-9, NCI-H1975 or HCC827 cells/100 μL per well were seeded in 96-well black plate with transparent bottom and then treated with indicated compounds in a 9-dose dilution series dispensed using TECAN d300e liquid dispenser. Cells were incubated with compounds for 120 hours at 37° C. and 5% CO2. Cell proliferation was measured using CellTiter-Glo 2.0 luciferase-based ATP detection assay (Promega, Madison, WI) at […] per well following the manufacturer's protocol. Plates were then read on a TECAN Sparks multimode microplate reader. Data was analyzed using GraphPad Prism 9 (GraphPad Software, San Diego, CA) to obtain IC50 values.

PC-9 cells = assay: 5-Day CellTiter Glo (CTG) cell proliferation assay, PC-9; conditions: Homo sapiens; PC-9 cells (d746-750 EGFR), 5-day CTG proliferation, 120 hours; read-out: PC-9 IC50
Experimental: as §1, §2

HCC827 cells = assay: 5-Day CellTiter Glo (CTG) cell proliferation assay, HCC827; conditions: Homo sapiens; HCC827 cells (d746-750 EGFR), 5-day CTG proliferation, 120 hours; read-out: HCC827 IC50
Experimental: as §1, §2

`Cc1nn(C)c2c1-c1cc3c(n[nH]c3c(C)n1)/C=C/c1cnn(CCO)c1CN(C1CC1)C[C@H](C)O2` [Ex. 133, 2-[(10S,17E)-12-cyclopropyl-6,8,10,20-tetramethyl-2,8,10,11,12,13-hexahydro-14H-5,3-(azenometheno)tripyrazolo[3,4-f:3′,4′-j:4″,3″-n][1,4]oxazacyclopentadecin-14-yl]ethan-1-ol] showed an IC50 (NCI-H1975 cells) of 40.5 nM, an IC50 (PC-9 cells) of 34.2 nM and an IC50 (HCC827 cells) of 8.87 nM.

`COCc1nn(C)c2c1-c1cc3c(n[nH]c3c(C)n1)/C=C/c1cnn([C@@H](C)CO)c1CN(C1CC1)C[C@H](C)O2` [Ex. 139, (2S)-2-[(10S,17E)-12-cyclopropyl-6-(methoxymethyl)-8,10,20-trimethyl-2,8,10,11,12,13-hexahydro-14H-5,3-(azenometheno)tripyrazolo[3,4-f:3′,4′-j:4″,3″-n][1,4]oxazacyclopentadecin-14-yl]propan-1-ol] was tested, and the IC50 (NCI-H1975 cells) was 429 nM, the IC50 (PC-9 cells) was 4.35 nM and the IC50 (HCC827 cells) was 0.82 nM.

Molecule `CCOc1nn(C)c2c1/C=C/c1n[nH]c3c(C)nc(cc13)-c1c(C)nn(C)c1O[C@@H](C)CN(C(=O)C1CC1)C2` [Ex. 136, cyclopropyl[(10S,17E)-16-ethoxy-6,8,10,14,20-pentamethyl-2,8,10,11,13,14-hexahydro-12H-5,3-(azenometheno)tripyrazolo[3,4-f:3′,4′-j:4″,3″-n][1,4]oxazacyclopentadecin-12-yl]methanone] has an IC50 (NCI-H1975 cells) of 266 nM, an IC50 (PC-9 cells) of 67 nM and an IC50 (HCC827 cells) of 34.4 nM.

`CCOc1nn([C@@H](C)CO)c2c1/C=C/c1n[nH]c3c(C)nc(cc13)-c1c(C)nn(C)c1O[C@@H](C)CN(CC)C2` [Ex. 145, (2S)-2-[(10S,17E)-16-ethoxy-12-ethyl-6,8,10,20-tetramethyl-2,8,10,11,12,13-hexahydro-14H-5,3-(azenometheno)tripyrazolo[3,4-f:3′,4′-j:4″,3″-n][1,4]oxazacyclopentadecin-14-yl]propan-1-ol] showed an IC50 (NCI-H1975 cells) of 0.58 nM, an IC50 (PC-9 cells) of 0.37 nM and an IC50 (HCC827 cells) of 0.24 nM.

Molecule `CCOc1nn(C)c2c1/C=C/c1n[nH]c3c(C)nc(cc13)-c1c(C)nn(C)c1O[C@@H](C)CN(C(=O)CC)C2` [Ex. 135, 1-[(10S,17E)-16-ethoxy-6,8,10,14,20-pentamethyl-2,8,10,11,13,14-hexahydro-12H-5,3-(azenometheno)tripyrazolo[3,4-f:3′,4′-j:4″,3″-n][1,4]oxazacyclopentadecin-12-yl]propan-1-one] has an IC50 (PC-9 cells) of 116 nM and an IC50 (HCC827 cells) of 73.8 nM.

For `CCOc1nn([C@@H](C)CO)c2c1/C=C/c1n[nH]c3c(O)nc(cc13)-c1c(C)nn(C)c1O[C@@H](C)CN(C)C2` [Ex. 99, (10S,17E)-16-ethoxy-14-[(2S)-1-hydroxypropan-2-yl]-6,8,10,12-tetramethyl-2,10,11,12,13,14-hexahydro-8H-5,3-(azenometheno)tripyrazolo[3,4-f:3′,4′-j:4″,3″-n][1,4]oxazacyclopentadecin-20-ol], the IC50 (NCI-H1975 cells) was 338 nM, the IC50 (PC-9 cells) was 351 nM and the IC50 (HCC827 cells) was 38.1 nM.

For `Cc1nn(C)c2c1-c1cc3c(n[nH]c3c(C)n1)/C=C/c1cnn([C@@H](C)CO)c1CN(C1CC1)C[C@H](C)O2` [Ex. 127, (2S)-2-[(10S,17E)-12-cyclopropyl-6,8,10,20-tetramethyl-2,8,10,11,12,13-hexahydro-14H-5,3-(azenometheno)tripyrazolo[3,4-f:3′,4′-j:4″,3″-n][1,4]oxazacyclopentadecin-14-yl]propan-1-ol], the IC50 (NCI-H1975 cells) was 1.92 nM, the IC50 (PC-9 cells) was 1.26 nM and the IC50 (HCC827 cells) was 0.37 nM.

In the case of `Cc1nn(C)c2c1-c1cc3c(n[nH]c3c(C)n1)/C=C/c1cnn([C@@H](C)CO)c1CN(C1CC1)[C@H](C)CO2` [Ex. 128, (2S)-2-[(11R,17E)-12-cyclopropyl-6,8,11,20-tetramethyl-2,8,10,11,12,13-hexahydro-14H-5,3-(azenometheno)tripyrazolo[3,4-f:3′,4′-j:4″,3″-n][1,4]oxazacyclopentadecin-14-yl]propan-1-ol], the IC50 (NCI-H1975 cells) is reported as 56.8 nM, the IC50 (PC-9 cells) is reported as 17 nM and the IC50 (HCC827 cells) is reported as 3.32 nM.

Molecule `CCOc1nn(C)c2c1/C=C/c1n[nH]c3c(C)nc(cc13)-c1c(C)nn(C)c1O[C@@H](C)CN(C(=O)C(C)C)C2` [Ex. 137, 1-[(10S,17E)-16-ethoxy-6,8,10,14,20-pentamethyl-2,8,10,11,13,14-hexahydro-12H-5,3-(azenometheno)tripyrazolo[3,4-f:3′,4′-j:4″,3″-n][1,4]oxazacyclopentadecin-12-yl]-2-methylpropan-1-one] has an IC50 (PC-9 cells) of 113 nM and an IC50 (HCC827 cells) of 90.7 nM.

`CCOc1nn([C@@H](C)CO)c2c1/C=C/c1n[nH]c3c(C)nc(cc13)-c1c(C)nn(C)c1O[C@H](C)[C@@H](C)N(C)C2` [Ex. 132a, (2S)-2-[(11R,17E)-16-ethoxy-6,8,10,11,12,20-hexamethyl-2,8,10,11,12,13-hexahydro-14H-5,3-(azenometheno)tripyrazolo[3,4-f:3′,4′-j:4″,3″-n][1,4]oxazacyclopentadecin-14-yl]propan-1-ol] was tested, and the IC50 (NCI-H1975 cells) was 0.77 nM, the IC50 (PC-9 cells) was 1.12 nM and the IC50 (HCC827 cells) was 0.41 nM.

`COCc1nn(C)c2c1-c1cc3c(n[nH]c3c(C)n1)/C=C/c1cnn([C@@H](C)CO)c1CN(C1CC1)[C@H](C)CO2` [Ex. 140, (2S)-2-[(11R,17E)-12-cyclopropyl-6-(methoxymethyl)-8,11,20-trimethyl-2,8,10,11,12,13-hexahydro-14H-5,3-(azenometheno)tripyrazolo[3,4-f:3′,4′-j:4″,3″-n][1,4]oxazacyclopentadecin-14-yl]propan-1-ol] was tested, and the IC50 (PC-9 cells) was 29.9 nM and the IC50 (HCC827 cells) was 6.1 nM.

`COCc1nn(C)c2c1-c1cc3c(n[nH]c3c(C)n1)/C=C/c1cnn(C)c1CN(C(=O)CCN(C)C)C[C@H](C)O2` [Ex. 143, 3-(dimethylamino)-1-[(10S,17E)-6-(methoxymethyl)-8,10,14,20-tetramethyl-2,8,10,11,13,14-hexahydro-12H-5,3-(azenometheno)tripyrazolo[3,4-f:3′,4′-j:4″,3″-n][1,4]oxazacyclopentadecin-12-yl]propan-1-one] gave an IC50 (NCI-H1975 cells) of 519 nM, an IC50 (PC-9 cells) of 21.6 nM and an IC50 (HCC827 cells) of 9.09 nM.

`CCOc1nn(C)c2c1/C=C/c1n[nH]c3c(C)nc(cc13)-c1c(C)nn(C)c1O[C@@H](C)CN(C(C)=O)C2` [Ex. 131, 1-[(10S,17E)-16-ethoxy-6,8,10,14,20-pentamethyl-2,8,10,11,13,14-hexahydro-12H-5,3-(azenometheno)tripyrazolo[3,4-f:3′,4′-j:4″,3″-n][1,4]oxazacyclopentadecin-12-yl]ethan-1-one] showed an IC50 (NCI-H1975 cells) of 671 nM, an IC50 (PC-9 cells) of 353 nM and an IC50 (HCC827 cells) of 60.5 nM.

`CCOc1nn([C@@H](C)CO)c2c1/C=C/c1n[nH]c3c(OC)nc(cc13)-c1c(C)nn(C)c1O[C@@H](C)CN(C)C2` [Ex. 96, (2S)-2-[(10S,17E)-16-ethoxy-20-methoxy-6,8,10,12-tetramethyl-2,8,10,11,12,13-hexahydro-14H-5,3-(azenometheno)tripyrazolo[3,4-f:3′,4′-j:4″,3″-n][1,4]oxazacyclopentadecin-14-yl]propan-1-ol] gave an IC50 (NCI-H1975 cells) of 27.2 nM, an IC50 (PC-9 cells) of 25.5 nM and an IC50 (HCC827 cells) of 2.97 nM.

`CCOc1nn([C@@H](C)CO)c2c1/C=C/c1n[nH]c3cnc(cc13)-c1c(COC)nn(C)c1O[C@@H](C)CN(C)C2` [Ex. 130, (2S)-2-[(10S,17E)-16-ethoxy-6-(methoxymethyl)-8,10,12-trimethyl-2,8,10,11,12,13-hexahydro-14H-5,3-(azenometheno)tripyrazolo[3,4-f:3′,4′-j:4″,3″-n][1,4]oxazacyclopentadecin-14-yl]propan-1-ol] was tested, and the IC50 (NCI-H1975 cells) was 176 nM, the IC50 (PC-9 cells) was 2.32 nM and the IC50 (HCC827 cells) was 0.75 nM.

`CCOc1nn([C@@H](C)CO)c2c1/C=C/c1n[nH]c3c(C)nc(cc13)-c1c(C)nn(C)c1O[C@@H](C)[C@@H](C)N(C)C2` [Ex. 132b, (2S)-2-[(11R,17E)-16-ethoxy-6,8,10,11,12,20-hexamethyl-2,8,10,11,12,13-hexahydro-14H-5,3-(azenometheno)tripyrazolo[3,4-f:3′,4′-j:4″,3″-n][1,4]oxazacyclopentadecin-14-yl]propan-1-ol] showed an IC50 (NCI-H1975 cells) of 0.7 nM, an IC50 (PC-9 cells) of 0.54 nM and an IC50 (HCC827 cells) of 0.29 nM.
